Experimental data reported in the Kinase Knowledgebase extract (Sharma et al. 2016).
pIC50: −log10 of the molar value.

Molecular target: MAPK14 (human) (UniProt Q16539)
Experiment: Inhibition of MAPK14 Kinase Activity

MAPK14 (human), sequence (Q16539 whole entry, looked up): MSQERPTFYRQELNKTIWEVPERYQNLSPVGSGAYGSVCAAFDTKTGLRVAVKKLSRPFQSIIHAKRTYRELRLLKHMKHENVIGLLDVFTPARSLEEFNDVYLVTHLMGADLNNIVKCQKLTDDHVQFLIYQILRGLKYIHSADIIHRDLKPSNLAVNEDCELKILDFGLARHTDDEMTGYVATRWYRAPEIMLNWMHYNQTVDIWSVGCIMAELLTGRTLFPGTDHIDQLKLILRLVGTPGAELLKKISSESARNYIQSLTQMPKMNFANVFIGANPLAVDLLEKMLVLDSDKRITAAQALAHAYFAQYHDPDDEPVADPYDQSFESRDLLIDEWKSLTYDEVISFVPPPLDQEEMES

pIC50 | Compound
≥ 6.00 | CCOC(=O)c1sc2c(ccc(=O)n2-c2ccc(CN3CCCC3)cc2)c1Nc1ccccc1
≥ 6.00 | CCOC(=O)c1sc2c(ccc(=O)n2CCOCCOC)c1Nc1ccccc1
≥ 6.00 | N#Cc1sc2c(ccc(=O)n2-c2ccc(OC[C@H](O)CO)cc2)c1Nc1ccc(F)cc1F
≥ 6.00 | Cc1cccc(Nc2c(C(=N)N)sc3c2ccc(=O)n3-c2ccccc2)c1
≥ 6.00 | NC(=O)c1sc2c(ccc(=O)n2-c2ccccc2)c1Nc1ccccc1
≥ 6.00 | CCOC(=O)c1sc2c(ccc(=O)n2-c2ccccc2)c1Nc1cccc(C#N)c1
≥ 6.00 | CCOC(=O)c1sc2c(ccc(=O)n2-c2ccc(NS(C)(=O)=O)cc2)c1Nc1ccc(F)cc1F
≥ 6.00 | N#Cc1sc2c(ccc(=O)n2-c2ccccc2)c1Nc1c(F)cccc1F
≥ 6.00 | Cc1cc(Nc2c(C#N)sc3c2ccc(=O)n3CC2CC2)ccc1F
≥ 6.00 | Cc1cc(Nc2c(C(N)=O)sc3c2ccc(=O)n3-c2ccsc2)ccc1F
≥ 6.00 | CCOC(=O)c1sc2c(ccc(=O)n2-c2ccccc2)c1Nc1cccnc1Cl
≥ 6.00 | CCOC(=O)c1sc2c(ccc(=O)n2-c2ccc([S+](C)[O-])cc2)c1Nc1ccccc1C#N (stereo not given)
≥ 6.00 | CCOC(=O)c1sc2c(ccc(=O)n2-c2ccc(F)cc2)c1Nc1cccc(C)c1C#N
≥ 6.00 | C=Cc1ccc(-n2c(=O)ccc3c(Nc4ccc(F)cc4F)c(C(=O)OCC)sc32)cc1
≥ 6.00 | Cc1cc(Nc2c(C#N)sc3c2ccc(=O)n3-c2ccccc2C)ccc1F
≥ 6.00 | CCOC(=O)c1sc2c(ccc(=O)n2-c2ccccc2)c1N(C)c1ccccc1
≥ 6.00 | N#Cc1cccc(Nc2c(C(N)=O)sc3c2ccc(=O)n3-c2ccccc2)c1
≥ 6.00 | CCOC(=O)c1sc2c(ccc(=O)n2-c2ccccc2)c1Nc1cccc(Cl)c1C#N
≥ 6.00 | CCOC(=O)c1sc2c(ccc(=O)n2-c2ccccc2)c1Nc1cccc(Cl)c1
≥ 6.00 | C[S+]([O-])c1ccc(-n2c(=O)ccc3c(Nc4ccccc4C#N)c(C(N)=O)sc32)cc1 (stereo not given)
≥ 6.00 | NC(=O)c1sc2c(ccc(=O)n2-c2ccccc2)c1Nc1ccc(F)c(Cl)c1
≥ 6.00 | O=C(NCCN1CCCCC1)c1sc2c(ccc(=O)n2-c2ccccc2)c1Nc1ccc(F)cc1F
≥ 6.00 | CON(C)C(=O)c1sc2c(ccc(=O)n2CC2CC2)c1Nc1ccccc1
≥ 6.00 | NC(=O)c1sc2c(ccc(=O)n2CC2CC2)c1Nc1ccc(F)c(Cl)c1
≥ 6.00 | N#Cc1sc2c(ccc(=O)n2-c2ccccc2Cl)c1Nc1ccccc1
≥ 6.00 | N#Cc1sc2c(ccc(=O)n2-c2ccccc2)c1Nc1ccccc1OC(F)F
≥ 6.00 | NC(=O)c1sc2c(ccc(=O)n2-c2ccccc2)c1Nc1ccc(F)cc1

pIC50 | Compound
≥ 6.00 | NC(=O)c1sc2c(ccc(=O)n2-c2ccccc2)c1Nc1cccc(SC(F)(F)F)c1
≥ 6.00 | N#Cc1sc2c(ccc(=O)n2-c2ccccc2)c1Nc1ccc(F)cc1F
≥ 6.00 | CCOC(=O)c1sc2c(ccc(=O)n2-c2ccc(C(O)CO)cc2)c1Nc1ccccc1 (stereo not given)
≥ 6.00 | Cc1cc(F)ccc1Nc1c(C#N)sc2c1ccc(=O)n2-c1ccccc1
≥ 6.00 | NC(=O)c1sc2c(ccc(=O)n2CC2CC2)c1Nc1cccc(Br)c1
≥ 6.00 | O=C(NCCCn1ccnc1)c1sc2c(ccc(=O)n2-c2ccccc2)c1Nc1ccccc1
≥ 6.00 | CCOC(=O)c1sc2c(ccc(=O)n2-c2ccccc2)c1Nc1ccc(C#N)c(Cl)c1
≥ 6.00 | CCOC(=O)c1sc2c(ccc(=O)n2-c2ccccc2)c1Nc1ccc(Cl)cc1
≥ 6.00 | Cc1cccc(Nc2c(C(N)=O)sc3c2ccc(=O)n3-c2ccc(F)cc2)c1
≥ 6.00 | CCOC(=O)c1sc2c(ccc(=O)n2CC2CC2)c1Nc1cccc(C)c1C#N
≥ 6.00 | CCOC(=O)c1sc2c(ccc(=O)n2-c2ccc3c(ccn3C)c2)c1Nc1ccccc1C#N
≥ 6.00 | CON(C)C(=O)c1sc2c(ccc(=O)n2-c2ccc(N(C)C)cc2)c1Nc1ccccc1
≥ 6.00 | N#Cc1ccccc1Nc1c(C(N)=O)sc2c1ccc(=O)n2-c1ccc(F)cc1
≥ 6.00 | CCOC(=O)c1sc2c(ccc(=O)n2-c2ccsc2)c1Nc1ccccc1
≥ 6.00 | N#Cc1sc2c(ccc(=O)n2-c2ccccc2)c1Nc1cccc(O)c1
≥ 6.00 | CCNC(=O)c1sc2c(ccc(=O)n2-c2ccccc2)c1Nc1ccccc1
≥ 6.00 | NC(=O)c1sc2c(ccc(=O)n2-c2ccccc2Cl)c1Nc1ccccc1
≥ 6.00 | Cc1cc(Nc2c(C(N)=O)sc3c2ccc(=O)n3CC2CC2)ccc1F
≥ 6.00 | CN(C)CCN(C)C(=O)c1sc2c(ccc(=O)n2-c2ccccc2)c1Nc1ccccc1
≥ 6.00 | Cc1cccc(Nc2c(C(N)=O)sc3c2ccc(=O)n3CC2CC2)c1
≥ 6.00 | Cc1cccc(Nc2c(C#N)sc3c2ccc(=O)n3-c2ccccc2)c1
≥ 6.00 | N#Cc1sc2c(ccc(=O)n2-c2ccccc2)c1Nc1cccc(SC(F)(F)F)c1
≥ 6.00 | CCOC(=O)c1sc2c(ccc(=O)n2-c2ccc3[nH]ccc3c2)c1Nc1ccccc1
≥ 6.00 | CN(C)C(=O)c1sc2c(ccc(=O)n2-c2ccccc2)c1Nc1ccccc1
≥ 6.00 | Cc1cccc(Nc2c(C#N)sc3c2ccc(=O)n3-c2ccc(F)cc2)c1
≥ 6.00 | Cc1cccc(Nc2c(C#N)sc3c2ccc(=O)n3-c2ccccc2)n1
≥ 6.00 | NC(=O)c1sc2c(ccc(=O)n2-c2ccccc2)c1Nc1cccc(C(F)(F)F)c1

pIC50 | Compound
≥ 6.00 | O=C(c1sc2c(ccc(=O)n2-c2ccccc2)c1Nc1ccc(F)cc1F)N1CCCC1
≥ 6.00 | Cc1cccc(Nc2c(C(N)=O)sc3c2ccc(=O)n3-c2ccc(F)cc2)c1C#N
≥ 6.00 | N#Cc1sc2c(ccc(=O)n2-c2ccccc2)c1Nc1cccc([N+](=O)[O-])c1
≥ 6.00 | CCc1cccc(Nc2c(C#N)sc3c2ccc(=O)n3-c2ccccc2)c1
≥ 6.00 | CNC(=O)c1sc2c(ccc(=O)n2-c2ccccc2)c1Nc1ccccc1
≥ 6.00 | N#Cc1sc2c(ccc(=O)n2-c2ccccc2)c1Nc1ccccc1OC(F)(F)F
≥ 6.00 | NC(=O)c1sc2c(ccc(=O)n2-c2ccccc2)c1Nc1ccccc1O
≥ 6.00 | Cc1cccc(Nc2c(C(N)=O)sc3c2ccc(=O)n3-c2ccc(S(C)(=O)=O)cc2)c1
≥ 6.00 | Cc1cc(Nc2c(C(N)=O)sc3c2ccc(=O)n3-c2ccc(F)cc2)ccc1F
≥ 6.00 | NC(=O)c1sc2c(ccc(=O)n2-c2ccccc2)c1Nc1cccc(O)c1
≥ 6.00 | Cc1cc(Nc2c(C(N)=O)sc3c2ccc(=O)n3C2CC2)ccc1F
≥ 6.00 | CCOC(=O)c1sc2c(ccc(=O)n2-c2ccccc2)c1Nc1ccc(F)cc1
≥ 6.00 | Cc1cccc(Nc2c(C#N)sc3c2ccc(=O)n3-c2ccccc2Cl)c1
≥ 6.00 | NNC(=O)c1sc2c(ccc(=O)n2-c2ccccc2)c1Nc1ccccc1
≥ 6.00 | CC(C)(O)CNC(=N)c1sc2c(ccc(=O)n2-c2ccccc2)c1Nc1ccc(F)cc1F
≥ 6.00 | CC(C)(CO)NC(=O)c1sc2c(ccc(=O)n2-c2ccccc2)c1Nc1ccccc1
≥ 6.00 | CCOC(=O)c1sc2c(ccc(=O)n2-c2ccccc2)c1Nc1cc(C)ccc1C#N
≥ 6.00 | CSc1cccc(Nc2c(C(N)=O)sc3c2ccc(=O)n3-c2ccccc2)c1
≥ 6.00 | CCOC(=O)c1sc2c(ccc(=O)n2-c2ccsc2)c1Nc1ccc(F)cc1F
≥ 6.00 | Cc1cc(Nc2c(C(N)=O)sc3c2ccc(=O)n3-c2ccccc2C)ccc1F
≥ 6.00 | CCOC(=O)c1sc2c(ccc(=O)n2-c2ccsc2)c1Nc1ccc(F)c(C)c1
≥ 6.00 | N#Cc1sc2c(ccc(=O)n2-c2ccc(OC[C@@H](O)CO)cc2)c1Nc1ccc(F)cc1F
≥ 6.00 | N#Cc1sc2c(ccc(=O)n2CC2CC2)c1Nc1ccccc1
≥ 6.00 | O=C(NCCN1CCOCC1)c1sc2c(ccc(=O)n2-c2ccccc2)c1Nc1ccccc1
≥ 6.00 | Cc1ccc(Nc2c(C#N)sc3c2ccc(=O)n3-c2ccccc2)cc1Br
≥ 6.00 | Cc1ccc(-n2c(=O)ccc3c(Nc4cccc(C)c4)c(C(N)=O)sc32)cc1
≥ 6.00 | N#Cc1sc2c(ccc(=O)n2-c2ccccc2)c1Nc1ccccc1

pIC50 | Compound
≥ 6.00 | Cc1ccc(C#N)c(Nc2c(C(N)=O)sc3c2ccc(=O)n3-c2ccccc2)c1
≥ 6.00 | CCOC(=O)c1sc2c(ccc(=O)n2-c2ccccc2)c1Nc1ccc(C#N)cc1
≥ 6.00 | Cc1c(Br)cccc1Nc1c(C#N)sc2c1ccc(=O)n2-c1ccccc1
≥ 6.00 | N#Cc1ccccc1Nc1c(C(N)=O)sc2c1ccc(=O)n2-c1ccccc1
≥ 6.00 | NC(=O)c1sc2c(ccc(=O)n2-c2ccc(C(O)CO)cc2)c1Nc1ccccc1 (stereo not given)
≥ 6.00 | N#Cc1sc2c(ccc(=O)n2-c2ccccc2)c1Nc1cccc(OC(F)(F)F)c1
≥ 6.00 | Cc1cccc(Nc2c(C#N)sc3c2ccc(=O)n3C2CC2)c1
≥ 6.00 | CCOC(=O)c1sc2c(ccc(=O)n2-c2ccc3c(ccn3S(C)(=O)=O)c2)c1Nc1ccccc1C#N
≥ 6.00 | CCOC(=O)c1sc2c(ccc(=O)n2-c2ccccc2)c1Nc1ccccc1OC
≥ 6.00 | NC(=O)c1sc2c(ccc(=O)n2-c2ccccc2)c1Nc1ccccc1OC(F)F
≥ 6.00 | NC(=O)c1sc2c(ccc(=O)n2CC2CC2)c1Nc1ccccc1
≥ 6.00 | O=C(c1sc2c(ccc(=O)n2-c2ccccc2)c1Nc1ccc(F)cc1)N1CCCC1
≥ 6.00 | O=C(c1sc2c(ccc(=O)n2-c2ccccc2)c1Nc1ccccc1)N1CCCCC1
≥ 6.00 | CN(C)c1ccc(-n2c(=O)ccc3c(Nc4ccccc4)c(C(=O)NCCCn4ccnc4)sc32)cc1
≥ 6.00 | O=c1ccc2c(Nc3ccccc3)csc2n1-c1ccccc1
≥ 6.00 | CN(C)c1ccc(-n2c(=O)ccc3c(Nc4ccccc4)c(C(=O)NCCN4CCCCC4)sc32)cc1
≥ 6.00 | NC(=O)c1sc2c(ccc(=O)n2-c2ccccc2)c1Nc1c(Cl)cccc1Cl
≥ 6.00 | O=C(NCCN1CCCCC1)c1sc2c(ccc(=O)n2-c2ccccc2)c1Nc1ccccc1
≥ 6.00 | Cc1cccc(Nc2c(C(N)=O)sc3c2ccc(=O)n3-c2ccccc2)c1
≥ 6.00 | N#Cc1sc2c(ccc(=O)n2-c2ccccc2)c1Nc1cccc(Br)c1
≥ 6.00 | Cc1ccc(-n2c(=O)ccc3c(Nc4ccc(F)c(C)c4)c(C(N)=O)sc32)cc1
≥ 6.00 | Cc1cccc(Nc2c(C#N)sc3c2ccc(=O)n3CC2CC2)c1
≥ 6.00 | CCOC(=O)c1sc2c(ccc(=O)n2-c2ccccc2)c1Nc1ccc(F)cc1F
≥ 6.00 | NC(=O)c1sc2c(ccc(=O)n2-c2ccccc2)c1Nc1ccccc1OC(F)(F)F
